# According to patent publication US11161850B2, “Fused pyrazine derivatives as A2A / A2B inhibitors” (Incyte Corporation, priority 2018, dated 2021):
# Experiments:
# [1] = target: Adenosine A2A (Homo sapiens (Human), UniProt P29274); experiment: A2A Tag-Lite HTRF assay; type: binding; conditions: Tag-Lite Adenosine A2A labeled cells, fluorescent ligand 12.5 nM; read-out: A2A_Ki
# Source text: Example C. A2A Tag-Lite® HTRF Assay
# [2] = target: human adenosine A2B receptor (Homo sapiens (Human), UniProt P29275); experiment: Adenosine A2B Receptor Cyclic AMP GS Assay; type: cell-based; conditions: A2B_cAMP_EC50 (nM), HEK-293 cells expressing human A2B, agonist NECA 12 nM
# Outline: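 Stably transfected HEK-293 cells were preincubated with compound for 30 min at room temperature, then stimulated with 12 nM NECA for 60 min. cAMP accumulation was read by FRET (665/620 ratio), and EC50 was fitted from percent of control versus log compound concentration.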
# human adenosine A2B receptor, sequence (P29275 whole entry): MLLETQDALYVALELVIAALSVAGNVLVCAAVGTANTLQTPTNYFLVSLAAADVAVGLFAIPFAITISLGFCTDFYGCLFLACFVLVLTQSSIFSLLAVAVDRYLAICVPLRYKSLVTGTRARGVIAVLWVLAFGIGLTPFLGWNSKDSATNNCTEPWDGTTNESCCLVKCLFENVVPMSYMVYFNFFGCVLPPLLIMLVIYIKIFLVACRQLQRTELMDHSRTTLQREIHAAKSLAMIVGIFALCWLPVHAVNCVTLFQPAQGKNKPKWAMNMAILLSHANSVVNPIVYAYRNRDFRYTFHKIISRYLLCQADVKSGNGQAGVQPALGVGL
# Adenosine A2A, sequence (P29274 whole entry): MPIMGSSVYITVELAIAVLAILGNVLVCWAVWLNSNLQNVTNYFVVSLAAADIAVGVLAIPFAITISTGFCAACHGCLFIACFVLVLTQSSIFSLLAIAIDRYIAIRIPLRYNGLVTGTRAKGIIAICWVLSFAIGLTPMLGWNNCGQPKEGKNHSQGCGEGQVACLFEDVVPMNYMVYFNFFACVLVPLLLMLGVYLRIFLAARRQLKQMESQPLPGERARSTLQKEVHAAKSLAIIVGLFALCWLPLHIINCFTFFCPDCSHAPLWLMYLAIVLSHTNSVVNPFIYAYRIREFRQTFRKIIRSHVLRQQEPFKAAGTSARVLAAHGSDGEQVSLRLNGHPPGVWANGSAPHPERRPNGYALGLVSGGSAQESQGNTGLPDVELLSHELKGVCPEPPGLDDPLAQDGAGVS
SMILES,Ki [1],EC50 [2]
"CCN(C)C(=O)c1cc2c(N)nc(-c3cccc(C#N)c3)c(-c3ccncn3)n2n1 [Example 11, 4-Amino-6-(3-cyanophenyl)-N-ethyl-N-methyl-7-(pyrimidin-4-yl)pyrazolo[1,5-a]pyrazine-2-carboxamide]",< 10 nM,< 10 nM
"CCCn1nccc1-c1c(-c2cccc(C#N)c2)nc(N)c2cc(C(=O)NCC)nn12 [Example 2, 4-Amino-6-(3-cyanophenyl)-N-ethyl-7-(1-propyl-1H-pyrazol-5-yl)pyrazolo[1,5-a]pyrazine-2-carboxamide]",< 10 nM,10 to 100 nM
